Measurements as given in PubChem BioAssay (NCI).
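Where inhibition never reached the appropriate level, the endpoint shown equals the highest concentration tested. Otherwise, values were interpolated linearly from a five-concentration, 48-hour dose response in 96-well plates. TGI: total growth inhibition.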

Tests used:
Assay in all cases: DTP human tumour cell line panel, 48 h
OVCAR-4 ovarian = system: OVCAR-4 ovarian
MDA-MB-435 = system: MDA-MB-435
HCT-15 colon = system: HCT-15 colon
BT-549 breast = system: BT-549 breast
UO-31 renal = system: UO-31 renal
SK-MEL-28 melanoma = system: SK-MEL-28 melanoma
SR leukemia = system: SR leukemia
DU-145 prostate = system: DU-145 prostate
CAKI-1 renal = system: CAKI-1 renal
HS 578T breast = system: HS 578T breast
NCI-H460 lung = system: NCI-H460 lung
OVCAR-8 ovarian = system: OVCAR-8 ovarian
MDA-N = system: MDA-N
RXF 393 renal = system: RXF 393 renal
SF-539 CNS = system: SF-539 CNS
SNB-19 CNS = system: SNB-19 CNS
HCC-2998 colon = system: HCC-2998 colon
PC-3 prostate = system: PC-3 prostate
MCF7 breast = system: MCF7 breast
RPMI-8226 leukemia = system: RPMI-8226 leukemia
LOX IMVI melanoma = system: LOX IMVI melanoma
UACC-62 melanoma = system: UACC-62 melanoma
SNB-75 CNS = system: SNB-75 CNS
UACC-257 melanoma = system: UACC-257 melanoma
COLO 205 colon = system: COLO 205 colon
SW-620 colon = system: SW-620 colon
U251 CNS = system: U251 CNS
IGROV1 ovarian = system: IGROV1 ovarian
KM12 colon = system: KM12 colon
EKVX NSCLC = system: EKVX NSCLC
786-0 renal = system: 786-0 renal
HOP-62 NSCLC = system: HOP-62 NSCLC
TK-10 renal = system: TK-10 renal
K-562 leukemia = system: K-562 leukemia
SN12C renal = system: SN12C renal
SF-268 CNS = system: SF-268 CNS
MOLT-4 leukemia = system: MOLT-4 leukemia
SF-295 CNS = system: SF-295 CNS
MDA-MB-231 breast = system: MDA-MB-231 breast
M14 melanoma = system: M14 melanoma
HL-60(TB) leukemia = system: HL-60(TB) leukemia
CCRF-CEM leukemia = system: CCRF-CEM leukemia
NCI/ADR-RES ovarian = system: NCI/ADR-RES ovarian
A498 renal = system: A498 renal
MALME-3M melanoma = system: MALME-3M melanoma
HCT-116 colon = system: HCT-116 colon
HT29 colon = system: HT29 colon
SK-OV-3 ovarian = system: SK-OV-3 ovarian
A549 NSCLC = system: A549 NSCLC
NCI-H226 lung = system: NCI-H226 lung
NCI-H23 lung = system: NCI-H23 lung
ACHN renal = system: ACHN renal
SK-MEL-5 melanoma = system: SK-MEL-5 melanoma
OVCAR-3 ovarian = system: OVCAR-3 ovarian
OVCAR-5 ovarian = system: OVCAR-5 ovarian
HOP-92 NSCLC = system: HOP-92 NSCLC
SK-MEL-2 melanoma = system: SK-MEL-2 melanoma

Compound `O=C1/C(=C/c2ccccc2)CCc2ccccc21` has a TGI (OVCAR-4 ovarian) of 28 µM, a TGI (MDA-MB-435) of 28.2 µM and a TGI (HCT-15 colon) of 86.9 µM. For the same compound, the TGI (BT-549 breast) was 29.7 µM, the TGI (UO-31 renal) was 27.8 µM and the TGI (SK-MEL-28 melanoma) was 38.3 µM. It also gave a TGI (SR leukemia) of 38.9 µM, a TGI (DU-145 prostate) of 37 µM and a TGI (CAKI-1 renal) of 32.7 µM. For the same compound, the TGI (HS 578T breast) was 72.4 µM, the TGI (NCI-H460 lung) was 65.4 µM and the TGI (OVCAR-8 ovarian) was 65.5 µM. For the same compound, the TGI (MDA-N) was 32.2 µM, the TGI (RXF 393 renal) was 29.7 µM and the TGI (SF-539 CNS) was 31.3 µM. It also gave a TGI (SNB-19 CNS) of 22.7 µM, a TGI (HCC-2998 colon) of 38.6 µM and a TGI (PC-3 prostate) of 38.6 µM. The TGI (MCF7 breast) was 34.6 µM, the TGI (RPMI-8226 leukemia) was 9.42 µM and the TGI (LOX IMVI melanoma) was 33 µM. The TGI (UACC-62 melanoma) was 36.7 µM, the TGI (SNB-75 CNS) was 31.9 µM and the TGI (UACC-257 melanoma) was 31.4 µM. For the same compound, the TGI (COLO 205 colon) was 38.2 µM, the TGI (SW-620 colon) was 34.2 µM and the TGI (U251 CNS) was 30.4 µM. It also gave a TGI (IGROV1 ovarian) of 54.3 µM, a TGI (KM12 colon) of 33.8 µM and a TGI (EKVX NSCLC) of 33.7 µM. The TGI (786-0 renal) was 34.7 µM, the TGI (HOP-62 NSCLC) was 34.4 µM and the TGI (TK-10 renal) was 29.2 µM. It also gave a TGI (K-562 leukemia) of 20.5 µM, a TGI (SN12C renal) of 56.1 µM and a TGI (SF-268 CNS) of 37.4 µM. It also gave a TGI (MOLT-4 leukemia) of 40.8 µM, a TGI (SF-295 CNS) of 34 µM and a TGI (MDA-MB-231 breast) of 87.7 µM. It also gave a TGI (M14 melanoma) of 37.4 µM, a TGI (HL-60(TB) leukemia) of 37.8 µM and a TGI (CCRF-CEM leukemia) of 18.3 µM. It also gave a TGI (NCI/ADR-RES ovarian) of 83.2 µM, a TGI (A498 renal) of 34.5 µM and a TGI (MALME-3M melanoma) of 31.9 µM. The TGI (HCT-116 colon) was 33.5 µM, the TGI (HT29 colon) was 32.7 µM and the TGI (SK-OV-3 ovarian) was 67.5 µM. It also gave a TGI (A549 NSCLC) of 57.4 µM, a TGI (NCI-H226 lung) of 35 µM and a TGI (NCI-H23 lung) of 45.8 µM. The TGI (ACHN renal) was 32.4 µM, the TGI (SK-MEL-5 melanoma) was 32.3 µM and the TGI (OVCAR-3 ovarian) was 30.2 µM. It also gave a TGI (OVCAR-5 ovarian) of 33.4 µM.
`C/C(=N\Nc1nc2ccccc2o1)c1cc(C)ncn1` showed a TGI (OVCAR-4 ovarian) of 27.5 µM, a TGI (MDA-MB-435) greater than 100 µM and a TGI (HCT-15 colon) of 35.3 µM. For the same compound, the TGI (BT-549 breast) was greater than 100 µM, the TGI (UO-31 renal) was 0.311 µM and the TGI (SK-MEL-28 melanoma) was greater than 100 µM. For the same compound, the TGI (SR leukemia) was greater than 100 µM, the TGI (DU-145 prostate) was greater than 100 µM and the TGI (CAKI-1 renal) was 42.5 µM. It also gave a TGI (NCI-H460 lung) of 30.5 µM, a TGI (OVCAR-8 ovarian) of 0.0519 µM and a TGI (MDA-N) greater than 100 µM. The TGI (RXF 393 renal) was 32.1 µM, the TGI (SF-539 CNS) was 5.77 µM and the TGI (SNB-19 CNS) was greater than 100 µM. For the same compound, the TGI (HCC-2998 colon) was greater than 48.6 µM, the TGI (HOP-92 NSCLC) was greater than 21.7 µM and the TGI (PC-3 prostate) was greater than 100 µM. For the same compound, the TGI (MCF7 breast) was greater than 85.3 µM, the TGI (RPMI-8226 leukemia) was greater than 100 µM and the TGI (SNB-75 CNS) was 3.27 µM. It also gave a TGI (COLO 205 colon) greater than 40.8 µM, a TGI (SW-620 colon) greater than 100 µM and a TGI (U251 CNS) greater than 100 µM. The TGI (IGROV1 ovarian) was 1.51 µM, the TGI (KM12 colon) was 11.7 µM and the TGI (EKVX NSCLC) was 2.95 µM. It also gave a TGI (SK-MEL-2 melanoma) of 32.7 µM, a TGI (786-0 renal) of 24.3 µM and a TGI (HOP-62 NSCLC) greater than 35.3 µM. The TGI (K-562 leukemia) was greater than 100 µM, the TGI (SN12C renal) was greater than 100 µM and the TGI (MOLT-4 leukemia) was 3.09 µM. It also gave a TGI (MDA-MB-231 breast) of 75 µM, a TGI (M14 melanoma) greater than 34.7 µM and a TGI (HL-60(TB) leukemia) greater than 100 µM. It also gave a TGI (CCRF-CEM leukemia) greater than 100 µM, a TGI (NCI/ADR-RES ovarian) of 0.0739 µM and a TGI (A498 renal) greater than 100 µM. It also gave a TGI (MALME-3M melanoma) of 33.1 µM, a TGI (HCT-116 colon) greater than 100 µM and a TGI (HT29 colon) of 14.8 µM. It also gave a TGI (SK-OV-3 ovarian) of 2.5 µM, a TGI (A549 NSCLC) greater than 39 µM and a TGI (NCI-H23 lung) greater than 43.7 µM. For the same compound, the TGI (ACHN renal) was 29.3 µM, the TGI (SK-MEL-5 melanoma) was 14.3 µM and the TGI (OVCAR-3 ovarian) was greater than 54.7 µM. The TGI (OVCAR-5 ovarian) was 26.8 µM.
